{
  "source": "a compilation of properties of binary mixtures (doi:10.1016/j.molliq.2016.06.018)",
  "experiment": "xn = mol fraction of the nth substance listed",
  "details": "100 kPa",
  "data": [
    {"compound": "CCCC[n+]1ccn(C)c1.O=S(=O)([N-]S(=O)(=O)C(F)(F)F)C(F)(F)F", "note": "+ CCCCCCCCN1CCCC1=O", "values": [
      {"measurement": "speed of sound", "setting": "298.15 K, x2 = 0", "value": 1227.9, "unit": "m/s"},
      {"measurement": "speed of sound", "setting": "303.15 K, x2 = 0", "value": 1216.8, "unit": "m/s"},
      {"measurement": "speed of sound", "setting": "308.15 K, x2 = 0", "value": 1205.8, "unit": "m/s"},
      {"measurement": "speed of sound", "setting": "313.15 K, x2 = 0", "value": 1195, "unit": "m/s"},
      {"measurement": "speed of sound", "setting": "318.15 K, x2 = 0", "value": 1184.2, "unit": "m/s"},
      {"measurement": "speed of sound", "setting": "323.15 K, x2 = 0", "value": 1173.6, "unit": "m/s"}
    ]},
    {"compound": "CCCCCCCCN1CCCC1=O", "note": "+ CCCC[n+]1ccn(C)c1.O=S(=O)([N-]S(=O)(=O)C(F)(F)F)C(F)(F)F", "values": [
      {"measurement": "speed of sound", "setting": "298.15 K, x1 = 0.1125", "value": 1234.8, "unit": "m/s"},
      {"measurement": "speed of sound", "setting": "298.15 K, x1 = 0.2205", "value": 1244.9, "unit": "m/s"},
      {"measurement": "speed of sound", "setting": "298.15 K, x1 = 0.3048", "value": 1255.2, "unit": "m/s"},
      {"measurement": "speed of sound", "setting": "298.15 K, x1 = 0.3915", "value": 1268.2, "unit": "m/s"},
      {"measurement": "speed of sound", "setting": "298.15 K, x1 = 0.5011", "value": 1288.3, "unit": "m/s"},
      {"measurement": "speed of sound", "setting": "298.15 K, x1 = 0.5983", "value": 1310.3, "unit": "m/s"},
      {"measurement": "speed of sound", "setting": "298.15 K, x1 = 0.7076", "value": 1341, "unit": "m/s"},
      {"measurement": "speed of sound", "setting": "298.15 K, x1 = 0.7976", "value": 1371.6, "unit": "m/s"},
      {"measurement": "speed of sound", "setting": "298.15 K, x1 = 0.8911", "value": 1406.7, "unit": "m/s"},
      {"measurement": "speed of sound", "setting": "298.15 K, x1 = 1", "value": 1450.2, "unit": "m/s"},
      {"measurement": "speed of sound", "setting": "303.15 K, x1 = 0.2205", "value": 1233.4, "unit": "m/s"},
      {"measurement": "speed of sound", "setting": "303.15 K, x1 = 0.3048", "value": 1243.4, "unit": "m/s"},
      {"measurement": "speed of sound", "setting": "303.15 K, x1 = 0.5011", "value": 1275.5, "unit": "m/s"},
      {"measurement": "speed of sound", "setting": "303.15 K, x1 = 0.5983", "value": 1297, "unit": "m/s"},
      {"measurement": "speed of sound", "setting": "303.15 K, x1 = 0.7976", "value": 1356.6, "unit": "m/s"},
      {"measurement": "speed of sound", "setting": "303.15 K, x1 = 0.8911", "value": 1390.5, "unit": "m/s"},
      {"measurement": "speed of sound", "setting": "303.15 K, x1 = 1", "value": 1432.6, "unit": "m/s"},
      {"measurement": "speed of sound", "setting": "308.15 K, x1 = 0.1125", "value": 1212.7, "unit": "m/s"},
      {"measurement": "speed of sound", "setting": "308.15 K, x1 = 0.2205", "value": 1222.1, "unit": "m/s"},
      {"measurement": "speed of sound", "setting": "308.15 K, x1 = 0.3048", "value": 1231.6, "unit": "m/s"},
      {"measurement": "speed of sound", "setting": "308.15 K, x1 = 0.5983", "value": 1283.7, "unit": "m/s"},
      {"measurement": "speed of sound", "setting": "308.15 K, x1 = 0.7076", "value": 1312.7, "unit": "m/s"},
      {"measurement": "speed of sound", "setting": "308.15 K, x1 = 0.7976", "value": 1341.5, "unit": "m/s"},
      {"measurement": "speed of sound", "setting": "308.15 K, x1 = 0.8911", "value": 1374.3, "unit": "m/s"},
      {"measurement": "speed of sound", "setting": "313.15 K, x1 = 0.1125", "value": 1201.8, "unit": "m/s"},
      {"measurement": "speed of sound", "setting": "313.15 K, x1 = 0.3048", "value": 1219.9, "unit": "m/s"},
      {"measurement": "speed of sound", "setting": "313.15 K, x1 = 0.3915", "value": 1231.6, "unit": "m/s"},
      {"measurement": "speed of sound", "setting": "313.15 K, x1 = 0.5011", "value": 1250, "unit": "m/s"},
      {"measurement": "speed of sound", "setting": "313.15 K, x1 = 0.5983", "value": 1270.4, "unit": "m/s"},
      {"measurement": "speed of sound", "setting": "313.15 K, x1 = 0.7076", "value": 1298.7, "unit": "m/s"},
      {"measurement": "speed of sound", "setting": "313.15 K, x1 = 0.7976", "value": 1326.5, "unit": "m/s"},
      {"measurement": "speed of sound", "setting": "313.15 K, x1 = 0.8911", "value": 1358.3, "unit": "m/s"},
      {"measurement": "speed of sound", "setting": "313.15 K, x1 = 1", "value": 1398, "unit": "m/s"},
      {"measurement": "speed of sound", "setting": "318.15 K, x1 = 0.1125", "value": 1190.9, "unit": "m/s"},
      {"measurement": "speed of sound", "setting": "318.15 K, x1 = 0.2205", "value": 1199.6, "unit": "m/s"},
      {"measurement": "speed of sound", "setting": "318.15 K, x1 = 0.3048", "value": 1208.3, "unit": "m/s"},
      {"measurement": "speed of sound", "setting": "318.15 K, x1 = 0.3915", "value": 1219.6, "unit": "m/s"},
      {"measurement": "speed of sound", "setting": "318.15 K, x1 = 0.5011", "value": 1237.5, "unit": "m/s"},
      {"measurement": "speed of sound", "setting": "318.15 K, x1 = 0.5983", "value": 1257.3, "unit": "m/s"},
      {"measurement": "speed of sound", "setting": "318.15 K, x1 = 0.7076", "value": 1284.9, "unit": "m/s"},
      {"measurement": "speed of sound", "setting": "318.15 K, x1 = 0.7976", "value": 1311.7, "unit": "m/s"},
      {"measurement": "speed of sound", "setting": "318.15 K, x1 = 0.8911", "value": 1342.4, "unit": "m/s"},
      {"measurement": "speed of sound", "setting": "318.15 K, x1 = 1", "value": 1380.9, "unit": "m/s"},
      {"measurement": "speed of sound", "setting": "323.15 K, x1 = 0.1125", "value": 1180.1, "unit": "m/s"},
      {"measurement": "speed of sound", "setting": "323.15 K, x1 = 0.2205", "value": 1188.4, "unit": "m/s"},
      {"measurement": "speed of sound", "setting": "323.15 K, x1 = 0.3048", "value": 1196.8, "unit": "m/s"},
      {"measurement": "speed of sound", "setting": "323.15 K, x1 = 0.3915", "value": 1207.6, "unit": "m/s"},
      {"measurement": "speed of sound", "setting": "323.15 K, x1 = 0.5011", "value": 1224.9, "unit": "m/s"},
      {"measurement": "speed of sound", "setting": "323.15 K, x1 = 0.5983", "value": 1244.2, "unit": "m/s"},
      {"measurement": "speed of sound", "setting": "323.15 K, x1 = 0.7076", "value": 1271.2, "unit": "m/s"},
      {"measurement": "speed of sound", "setting": "323.15 K, x1 = 0.7976", "value": 1297.1, "unit": "m/s"},
      {"measurement": "speed of sound", "setting": "323.15 K, x1 = 1", "value": 1364, "unit": "m/s"}
    ]}
  ]
}
